Source: US20250084067A1, “PYRAZOLE-SUBSTITUTED CYCLOPENTANOL ESTER DERIVATIVE AND USE THEREOF” (CHIA TAI TIANQING PHARMACEUTICAL GROUP CO., LTD., priority 2022, published 2025)
Where two headings read alike, the source gives them in different places.

How the values were obtained:
CDK2/CycA2 kinase = CDK2/CycA2 kinase (Homo sapiens (Human), UniProt P24941); experiment: Determination of inhibitory activity against CDK2/CycA2 kinase; format: biochemical
Experimental: The wells were set in duplicate, and a control well was set. […] The resulting mixture was left to react at room temperature for 2 h, and then 5 µL of EDTA was added to terminate the reaction, followed by addition of 5 μL of a detection antibody (manufacturer: PerkinElmer, concentration: 8 nM). The mixture was incubated at room temperature for 1 h.

CDK2 CycE1 kinase = CDK2 CycE1 kinase (Homo sapiens (Human), UniProt P24941); experiment: Determination of inhibitory activity against CDK2 CycE1 kinase; format: biochemical
Experimental: CDK2 CycE1 kinase solution (concentration: 0.015 ng/μL) was added to assay wells at 6 μL/well, and different compounds dissolved in DMSO were added to the assay wells separately using a nanoliter pipettor, such that the final concentrations of the compounds were 300 nM to 0.07 nM. The wells were set in duplicate, and a control well was set. After incubation of the above system for 30 min, ATP (concentration: 50 μM or 5000 μM) was mixed with ULight-Myelin Basic Protein Peptide substrate (manufacturer: PerkinElmer, concentration: […]) at a ratio of 1:1, and the mixture was added to the assay wells at 4 μL/well. The resulting mixture was left to react at room temperature for 2 h, and then 5 μL of EDTA was added to terminate the reaction, followed by addition of 5 μL of a detection antibody (manufacturer: PerkinElmer, concentration: 8 nM). The mixture was incubated at room temperature for 1 h.

[1] = read-out: CDK2/CycA2 10 μM ATP (kinase) IC50
[2] = read-out: CDK2/CycE1 10 μM ATP (kinase) IC50

IC50 (CDK2/CycA2 kinase; 10 μM ATP) [nM] | IC50 (CDK2 CycE1 kinase; 10 μM ATP) [nM] | SMILES | IC50 (CDK2/CycA2 kinase; [1]) [nM] | IC50 (CDK2 CycE1 kinase; [2]) [nM]
10 to 50 | 10 to 50 | CC(C)NC(=O)O[C@@H]1CC[C@H](c2cc(NC3CCN(S(=O)(=O)c4cnn(C)c4)CC3)n[nH]2)C1 [Example 60] | – | –
10 to 50 | 10 to 50 | CC(C)NC(=O)O[C@@H]1CC[C@H](c2cc(Nc3ccc(S(=O)(=O)N(C)C)cn3)n[nH]2)C1 [Example 69] | – | –
< 10 | < 10 | CC(C)NC(=O)O[C@@H]1CC[C@H](c2cc(Nc3ccc(S(=O)(=O)NC4CC4)cn3)n[nH]2)C1 [Example 68] | – | –
< 10 | < 10 | CC(C)NC(=O)O[C@@H]1CC[C@H](c2cc(Nc3ccc(NS(C)(=O)=O)c(F)n3)n[nH]2)C1 [Example 24] | – | –
< 10 | < 10 | COc1nc(Nc2cc([C@H]3CC[C@@H](OC(=O)NC(C)C)C3)[nH]n2)ccc1NS(C)(=O)=O [Example 45] | – | –
10 to 50 | < 10 | CC(C)NC(=O)O[C@@H]1CC[C@H](c2cc(Nc3ccc(CN(C)C)cc3F)n[nH]2)C1 [Example 10] | – | –
< 10 | < 10 | CC(C)NC(=O)O[C@@H]1CC[C@H](c2cc(Nc3ccc(NS(C)(=O)=O)c(OC(F)(F)F)c3)n[nH]2)C1 [Example 47] | – | –
< 10 | < 10 | CC(C)NC(=O)O[C@@H]1CC[C@H](c2cc(Nc3ccc(S(N)(=O)=O)c(Cl)n3)n[nH]2)C1 [Example 52] | – | –
< 10 | < 10 | CC(C)NC(=O)O[C@@H]1CC[C@H](c2cc(Nc3ccc(NS(C)(=O)=O)c(F)c3F)n[nH]2)C1 [Example 37] | – | –
– | – | CC(C)NC(=O)O[C@@H]1CC[C@H](c2cc(Nc3cc(OC(F)(F)F)c(NS(C)(=O)=O)cn3)n[nH]2)C1 [Example 31] | < 10 | < 10
< 10 | < 10 | CC(C)NC(=O)O[C@@H]1CC[C@H](c2cc(Nc3ccc(S(N)(=O)=O)c(C(F)(F)F)c3)n[nH]2)C1 [Example 66] | – | –
< 10 | < 10 | CC(C)NC(=O)O[C@@H]1CC[C@H](c2cc(Nc3ccc(C(N)=O)cc3)n[nH]2)C1 [Example 46] | – | –
< 10 | < 10 | CC(C)NC(=O)O[C@@H]1CC[C@H](c2cc(Nc3ccc(NS(C)(=O)=O)c(C(F)(F)F)c3)n[nH]2)C1 [Example 27] | – | –
– | – | CC(C)NC(=O)O[C@@H]1CC[C@H](c2cc(Nc3ccc(NS(C)(=O)=O)c(C(F)F)c3)n[nH]2)C1 [Example 74] | < 10 | < 10
< 10 | < 10 | CC(C)NC(=O)O[C@@H]1CC[C@H](c2cc(Nc3ccc4c(c3)OCO4)n[nH]2)C1 [Example 39] | – | –
– | – | CC(C)NC(=O)O[C@@H]1CC[C@H](c2cc(Nc3ccc(N4CCCC4=O)c(Cl)n3)[nH]n2)C1 [Example 57] | < 10 | < 10
< 10 | < 10 | CC(C)NC(=O)O[C@@H]1CC[C@H](c2cc(Nc3ccc(NS(C)(=O)=O)c(OC(F)(F)F)n3)n[nH]2)C1 [Example 29] | – | –
< 10 | < 10 | CC(C)NC(=O)O[C@@H]1CC[C@H](c2cc(Nc3ccc(N4CCCC4=O)c(F)c3)n[nH]2)C1 [Example 35] | – | –
– | – | CC(C)NC(=O)O[C@@H]1CC[C@H](c2cc(Nc3ccc(NS(C)(=O)=O)c(OC(F)F)c3)n[nH]2)C1 [Example 71] | < 10 | < 10
10 to 50 | 10 to 50 | CC(C)NC(=O)O[C@@H]1CC[C@H](c2cc(Nc3ccc(N=S(C)(C)=O)cc3)n[nH]2)C1 [Example 59] | – | –
< 10 | < 10 | CC(C)NC(=O)O[C@@H]1CC[C@H](c2cc(Nc3ccc(S(N)(=O)=O)cc3)n[nH]2)C1 [Example 65] | – | –
< 10 | < 10 | CNS(=O)(=O)c1ccc(Nc2cc(C3CCC(OC(=O)NC(C)C)C3)[nH]n2)c(F)c1 (stereo not drawn) [Example 16] | – | –
< 10 | < 10 | CC(C)NC(=O)O[C@@H]1CC[C@H](c2cc(Nc3cc(F)c(NS(C)(=O)=O)cc3F)n[nH]2)C1 [Example 32] | – | –
< 10 | < 10 | CC(C)NC(=O)O[C@@H]1CC[C@H](c2cc(Nc3ccc4c(c3)CC(=O)N4)n[nH]2)C1 [Example 42] | – | –
< 10 | < 10 | CC(C)NC(=O)O[C@@H]1CC[C@H](c2cc(Nc3ccc(S(C)(=O)=O)cc3)n[nH]2)C1 [Example 54] | – | –
< 10 | < 10 | CC(C)NC(=O)O[C@@H]1CC[C@H](c2cc(Nc3ccc(S(=N)(=O)C4CC4)cc3)n[nH]2)C1 (stereo partly drawn) [Example 62] | – | –
< 10 | < 10 | CC(C)NC(=O)O[C@@H]1CC[C@H](c2cc(Nc3ccc(NS(=O)(=O)C4CC4)cn3)n[nH]2)C1 [Example 8] | – | –

IC50 (CDK2/CycA2 kinase; 10 μM ATP) [nM] | IC50 (CDK2 CycE1 kinase; 10 μM ATP) [nM] | SMILES | IC50 (CDK2/CycA2 kinase; [1]) [nM] | IC50 (CDK2 CycE1 kinase; [2]) [nM]
– | – | CC(C)NC(=O)O[C@@H]1CC[C@H](c2cc(Nc3ccc(S(C)(=N)=O)c(Cl)c3)n[nH]2)C1 (stereo partly drawn) [Example 73] | < 10 | < 10
< 10 | < 10 | CC(C)NC(=O)O[C@@H]1CC[C@H](c2cc(Nc3ccc(S(N)(=O)=O)c(F)c3)n[nH]2)C1 [Example 33] | – | –
< 10 | < 10 | CNC(=O)O[C@@H]1CC[C@H](c2cc(Nc3ccc4c(c3)CS(=O)(=O)C4)n[nH]2)C1 [Example 53] | – | –
< 10 | < 10 | CC(C)NC(=O)O[C@@H]1CC[C@H](c2cc(Nc3ccc4c(c3)CNS4(=O)=O)n[nH]2)C1 [Example 56] | – | –
10 to 50 | < 10 | COc1ccc(Nc2cc([C@H]3CC[C@@H](OC(=O)NC(C)C)C3)[nH]n2)nc1 [Example 9] | – | –
10 to 50 | 10 to 50 | COCCNc1ccc(Nc2cc(C3CCC(OC(=O)NC(C)C)C3)[nH]n2)nc1 (stereo not drawn) [Example 20] | – | –
10 to 50 | < 10 | CC(C)NC(=O)O[C@@H]1CC[C@H](c2cc(Nc3ccc4c(c3)CCN4S(C)(=O)=O)n[nH]2)C1 [Example 51] | – | –
< 10 | < 10 | CC(C)NC(=O)O[C@@H]1CC[C@H](c2cc(Nc3ccc(S(N)(=O)=O)cc3F)n[nH]2)C1 [Example 25] | – | –
10 to 50 | 10 to 50 | CC(=O)N(C)c1ccc(Nc2cc([C@H]3CC[C@@H](OC(=O)NC(C)C)C3)[nH]n2)nc1 [Example 4] | – | –
< 10 | < 10 | CC(C)NC(=O)O[C@@H]1CC[C@H](c2cc(Nc3ccc(NS(C)(=O)=O)c(C(F)(F)F)n3)n[nH]2)C1 [Example 11] | – | –
< 10 | < 10 | CC(C)NC(=O)OC1CCC(c2cc(Nc3ccc4c(n3)OCC4)n[nH]2)C1 (stereo not drawn) [Example 21] | – | –
< 10 | < 10 | CC(C)NC(=O)O[C@H]1CC[C@@H](c2cc(Nc3ccc(NS(C)(=O)=O)c(C(F)(F)F)c3)n[nH]2)C1 [Example 50] | – | –
< 10 | < 10 | CC(C)NC(=O)O[C@@H]1CC[C@H](c2cc(Nc3ccc(NS(C)(=O)=O)cc3F)n[nH]2)C1 [Example 3] | – | –
< 10 | < 10 | O=C(NC1CC1)O[C@@H]1CC[C@H](c2cc(Nc3ccc4c(c3)CS(=O)(=O)C4)n[nH]2)C1 [Example 67] | – | –
< 10 | < 10 | CC(C)NC(=O)O[C@@H]1CC[C@H](c2cc(Nc3ccc(NS(C)(=O)=O)c(Cl)c3)n[nH]2)C1 [Example 40] | – | –
10 to 50 | 10 to 50 | CC(C)NC(=O)OC1CCC(c2cc(NC3CCN(S(C)(=O)=O)CC3)n[nH]2)C1 (stereo not drawn) [Example 22] | – | –
10 to 50 | 10 to 50 | CC(C)NC(=O)O[C@@H]1CC[C@H](c2cc(Nc3ccc(P(C)(C)=O)cc3)n[nH]2)C1 [Example 41] | – | –
< 10 | < 10 | CC(C)NC(=O)O[C@@H]1CC[C@H](c2cc(Nc3ccc(NS(C)(=O)=O)nc3)n[nH]2)C1 [Example 15] | – | –
< 10 | < 10 | CC(C)NC(=O)O[C@@H]1CC[C@H](c2cc(Nc3ccc(N4CCCS4(=O)=O)cn3)n[nH]2)C1 [Example 28] | – | –
– | – | CC(C)NC(=O)O[C@@H]1CC[C@H](c2cc(Nc3ccc(S(C)(=N)=O)c(F)c3)n[nH]2)C1 (stereo partly drawn) [Example 70] | < 10 | < 10
< 10 | < 10 | CC(C)NC(=O)O[C@@H]1CC[C@H](c2cc(Nc3ccc(NC=O)cn3)n[nH]2)C1 [Example 5] | – | –
< 10 | < 10 | CC(=O)Nc1ccc(Nc2cc([C@H]3CC[C@@H](OC(=O)NC(C)C)C3)[nH]n2)nc1 [Example 6] | – | –
< 10 | < 10 | CC(C)NC(=O)O[C@H]1CC[C@@H](c2cc(Nc3ccc(S(N)(=O)=O)cc3F)n[nH]2)C1 [Example 34] | – | –
< 10 | < 10 | CC(C)NC(=O)O[C@@H]1CC[C@H](c2cc(Nc3ccc(NS(C)(=O)=O)cc3)n[nH]2)C1 [Example 7] | – | –
– | – | C[C@H](NC(=O)O[C@@H]1CC[C@H](c2cc(Nc3ccc4c(c3)CS(=O)(=O)C4)n[nH]2)C1)C(F)(F)F [Example 63] | < 10 | < 10
< 10 | < 10 | [2H]C([2H])([2H])C([2H])(NC(=O)O[C@@H]1CC[C@H](c2cc(Nc3ccc(S(N)(=O)=O)c(Cl)n3)n[nH]2)C1)C([2H])([2H])[2H] [Example 77] | – | –
– | – | C[C@@H](NC(=O)O[C@@H]1CC[C@H](c2cc(Nc3ccc4c(c3)CS(=O)(=O)C4)n[nH]2)C1)C(F)(F)F [Example 64] | < 10 | < 10
